# pIC50: −log10 of the molar value. The source made the active and inactive calls. The rule behind the calls is not given here. *1 amine or outer side, *2 acyl side, *3 side chain or, on linkers, in order; H or OH if unused. Where a SMILES comes first, the peptide text is derived from it. [ ]: non-standard residue; d: D form. X2 = CCC[C@@H](N[*:1])[C@H](C)C(=O)O[C@H](C(=O)[*:2])[C@@H](C)CC; X1 = CC(N[*:1])C(=O)C(C)(C)C(=O)[*:2]; NMeY = CN[C@@H](Cc1ccc(O)cc1)C(=O)O; NMeL = CN[C@@H](CC(C)C)C(=O)O; NMeV = CN[C@H](C(=O)O)C(C)C; NMeA = CN[C@@H](C)C(=O)O
# System: HEK-293T NF-kB luciferase reporter counterscreen, luminescence
# Experiment: inhibitors of HEK-293T NF-kB luciferase – HEK-293T cells, luminescence, counter-screen for T-cell antigen receptor NF-kB inhibitors, dose response (AID 489041)
Compound,pIC50,IC50
Oc1ccc(Nc2nc3ccccc3nc2Nc2ccc(O)cc2)cc1,4.75,–
CN=c1scc(-c2cccs2)n1/N=C/c1ccccc1O,> 6.80,–
CCCCCCCCn1c2c(c(=N)c3c1CCC3)CCCC2,5.84,–
Cc1ccc(O)c(NC(=O)c2cc(-c3ccco3)on2)c1,–,> 80 µM (inactive)
c1ccc2c(c1)CCN(c1ncnc3c1[nH]c1ccccc13)C2,5.84,–
Cc1ccc2c(c1)COc1c3ccc(C(=O)O)cc3nn1-2,4.89,–
CCCCOc1ccc(Br)cc1/C(C)=N/NC1=NCCN1,5.21,–
COc1ccc(S(=O)(=O)Nc2cccc(-c3ccc4nncn4n3)c2)cc1F,–,49.2 µM (inactive)
c1ccc(-c2noc(-c3ccc4c(c3)OCO4)n2)nc1,5.85,–
COc1cccc(N/C(N)=N/c2nc(CSc3ccccn3)cc(=O)[nH]2)c1,5.23,–
O=C(O)c1ccc(N/N=C/c2ccc3c(c2)OCO3)cc1,5.76,–
O=C(Nc1ccc(S(=O)(=O)N2CCOCC2)cc1)c1ccc(CN2CCc3ccccc3C2)cc1,5.89,–
CNC[C@H](CC1CCCCC1)NC[C@H](Cc1ccccc1)NCCC12CC3CC(CC(C3)C1)C2,–,25 µM (inactive)
COc1ccccc1C(=O)N(CCC1CCCN1C)c1nc2ccccc2s1 (configuration not stated),4.73,–
COc1ccc(Nc2ncnc3ccc(Br)cc23)c(OC)c1,4.92,–
C#Cc1ccc([C@@H]2C=C(C(=O)N3CCN(Cc4ccccc4)CC3)O[C@H](OCCCCO)C2)cc1,5.63,–
CCOc1ccc(S(=O)(=O)N2c3ccccc3CC2C)cc1 (configuration not stated),5.22,–
COC(=O)c1ccccc1NC1=C/C(=N\S(=O)(=O)c2cccs2)c2ccccc2C1=O,5.98,–
Cc1ccc2c(c1)Oc1ccc(NC(=O)CCl)cc1C(=O)N2,5.57,–
Cc1cccc(N=Nc2ccc(O)c3ncccc23)c1,–,> 80 µM (inactive)
Cc1c(C(=O)OCC(C)C)[nH]c2c1C(=O)CC(c1cccs1)C2 (configuration not stated),6.39,–

Compound,pIC50,IC50
COC(=O)Nc1ccc(S(=O)(=O)N2CCCc3ccccc32)cc1,4.92,–
O=C(Sc1cccc2cccnc12)c1ccc(F)cc1,–,34.2 µM (inactive)
Cc1cnc(NC(=O)c2ccc3c(c2)OCCO3)s1,5.42,–
CCC[C@H]1NC(=O)[C@H](C)N(C)C(=O)C(C)(C)C(=O)C(C)NC(=O)[C@H](Cc2ccc(OC)cc2)N(C)C(=O)[C@H](C(C)C)N(C)C(=O)CNC(=O)[C@H](CC(C)C)N(C)C(=O)CNC(=O)[C@H]([C@@H](C)CC)OC(=O)[C@H]1C (some centres not stated) (cyclo(G[NMeL]G[NMeV][NMeY](Me)[X1][NMeA][X2])),–,46.7 µM (inactive)
COc1ccc(S(=O)(=O)/N=C2\C=C(Nc3ccc(O)cc3)C(=O)c3ccccc32)cc1,5.99,–
CC(C)(C)c1nnc(N/N=C/c2ccccc2O)n(N)c1=O,–,28 µM (inactive)
CCCCCCCCCn1c2c(c(=N)c3c1CCC3)CCCC2,6.17,–
Cc1nc2ccccc2c2c1CC(C(C)(Cl)Br)O2 (configuration not stated),5.54,–
O=C1C=C(c2ccc3ncccc3c2)C[C@@H](c2ccc3c(c2)OCO3)C1,4.95,–
CCOc1ccc(S(=O)(=O)NCc2ccccn2)cc1NC(=O)c1ccccc1F,–,> 80 µM (inactive)
Cc1cccc(N2CCN(C(=O)c3ccc4[nH]c(C)c(C)c4c3)CC2)c1C,4.72,–
CC1=NNC(=O)/C1=C\c1cn(-c2ccccc2)nc1-c1ccc(Cl)cc1,5.11,–
CCC(=O)NC(c1cccs1)c1ccc2cccnc2c1O (configuration not stated),5.79,–
CC#CC(=O)N1CCC(n2nccc2NC(=O)c2ccc3c(c2)OCO3)CC1,–,> 80 µM (inactive)
COc1cc(/C=C/C(=O)c2ccc([N+](=O)[O-])o2)ccc1O,5.13,–
O=S(=O)(c1ccc2c(c1)OCCO2)N1CCN(c2ncnc3sccc23)CC1,5.61,–
C/C=C/COC(=O)c1[nH]c2c(c1C)C(=O)CC(c1ccco1)C2 (configuration not stated),6.47,–
Cc1cccc(N(C)S(=O)(=O)c2ccc(-c3cnc(C4CC4)o3)cc2)c1,6.24,–
O=C(O)c1ccc(-c2ccc(-c3ccccc3)cc2)s1,5.03,–
C[C@]12CCC3C(CCC4=CC(O)CC[C@@]43/C=N/O)C1(O)CCC2C1=CC(=O)OC1 (some centres not stated),6.48,–
O=C(N/N=C/c1c(O)ccc2ccccc12)c1ccc(Br)o1,6.26,–

# — PubChem BioAssay AID489041 (Sanford-Burnham Center for Chemical Genomics, 2010)
